Measurements reported in patent US8952024B2, “Herbicidal pyrimidone derivatives” (E I du Pont de Nemours and Company, priority 2009, dated 2015).

How the values were obtained:
Format in all cases: in vivo
[1] = test system: bermudagrass (Cynodon dactylon); assay: Test B pre-/postemergence plant response; settings: for Bermudagrass plant response rating (0 to 100 scale): 62 g ai/ha, postemergence, 0 is no effect, 100 is complete control; for Plant response rating, Bermudagrass: Postemergence
Summary of the method: (§1)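 Steps: sow seed in loam–sand soil and spray preemergence, or grow plants in peat-based medium to 1–4 leaves (2–18 cm) and spray postemergence; formulation is non-phytotoxic solvent plus surfactant; hold in greenhouse 13–15 days; score visually vs controls, 0 = no effect, 100 = complete control.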

[2] = test system: blackgrass (Alopecurus myosuroides); assay: Test B pre-/postemergence plant response; settings: for Blackgrass plant response rating (0 to 100 scale): 62 g ai/ha, postemergence, 0 is no effect, 100 is complete control; for Plant response rating, Blackgrass: Postemergence
Summary of the method: as §1

[3] = test system: cocklebur (Xanthium strumarium); assay: Test B pre-/postemergence plant response; settings: Postemergence
Summary of the method: as §1

corn (Zea mays) = assay: Test B pre-/postemergence plant response; settings: Postemergence
Summary of the method: as §1

[4] = test system: giant foxtail (Setaria faberii); assay: Test B pre-/postemergence plant response; settings: Postemergence
Summary of the method: as §1

[5] = test system: johnsongrass (Sorghum halepense); assay: Test B pre-/postemergence plant response; settings: Postemergence
Summary of the method: as §1

kochia (Kochia scoparia) = assay: Test B pre-/postemergence plant response; settings: Postemergence
Summary of the method: as §1

[6] = test system: morningglory (Ipomoea coccinea); assay: Test B pre-/postemergence plant response; settings: Postemergence
Summary of the method: as §1

soybean (Glycine max) = assay: Test B pre-/postemergence plant response; settings: Postemergence
Summary of the method: as §1

wild oat (Avena fatua) = assay: Test B pre-/postemergence plant response; settings: Postemergence
Summary of the method: as §1

[7] = test system: canarygrass (Phalaris minor); assay: Test B postemergence plant response; settings: Postemergence
Summary of the method: (§2)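 Plants at the 1- to 4-leaf stage (2 to 18 cm tall), grown in pots of peat moss/vermiculite medium with wetting agent and starter nutrients, received postemergence applications of test chemicals. After 13 to 15 days in a greenhouse, injury was rated visually against untreated controls on a 0 (no effect) to 100 (complete control) scale.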

[8] = test system: chickweed (Stellaria media); assay: Test B postemergence plant response; settings: Postemergence
Summary of the method: as §2

[9] = test system: windgrass (Apera spica-venti); assay: Test B postemergence plant response; settings: Postemergence
Summary of the method: as §2

[10] = test system: winter barley (Hordeum vulgare); assay: Test B postemergence plant response; settings: for Barley plant response rating (0 to 100 scale): 62 g ai/ha, postemergence, 0 is no effect, 100 is complete control; for Plant response rating, Barley: Postemergence
Summary of the method: as §2

[11] = 31 g ai/ha, 0 to 100 scale (0 no effect, 100 complete control)
[12] = 125 g ai/ha, scale 0 to 100 (0 no effect, 100 complete control)
[13] = 250 g ai/ha, scale 0 to 100 (0 no effect, 100 complete control), 13 to 15 days

O=C1CCCC(O)=C1C(=O)c1cnc(-c2ccccc2)n(C2CCSCC2)c1=O [Compound 164]
Bermudagrass plant response rating (0 to 100 scale) ([1]; 13 to 15 days): 98
Plant response rating, Bermudagrass [1, 11]: 70
Plant response rating, Bermudagrass [1, 12]: 98
Plant response rating, Bermudagrass [1, 13]: 100
Blackgrass plant response rating (0 to 100 scale) ([2]; 13 to 15 days): 5
Plant response rating, Blackgrass [2, 11]: 5
Plant response rating, Blackgrass [2, 12]: 10
Plant response rating, Blackgrass [2, 13]: 35
Plant response rating, Cocklebur [3, 11]: 98
Plant response rating, Cocklebur [3, 12]: 100
Plant response rating, Cocklebur [3, 13]: 100
Plant response rating, Corn (corn (Zea mays); [11]): 15
Plant response rating, Corn (corn (Zea mays); [12]): 45
Plant response rating, Corn (corn (Zea mays); [13]): 70
Plant response rating, Foxtail, Giant [4, 11]: 90
Plant response rating, Foxtail, Giant [4, 12]: 98
Plant response rating, Foxtail, Giant [4, 13]: 100
Plant response rating, Johnsongrass [5, 11]: 45
Plant response rating, Johnsongrass [5, 12]: 95
Plant response rating, Johnsongrass [5, 13]: 98
Plant response rating, Kochia (kochia (Kochia scoparia); [11]): 98
Plant response rating, Kochia (kochia (Kochia scoparia); [12]): 100
Plant response rating, Kochia (kochia (Kochia scoparia); [13]): 100
Plant response rating, Morningglory [6, 11]: 90
Plant response rating, Morningglory [6, 12]: 98
Plant response rating, Morningglory [6, 13]: 100
Plant response rating, Soybean (soybean (Glycine max); [11]): 80
Plant response rating, Soybean (soybean (Glycine max); [12]): 100
Plant response rating, Soybean (soybean (Glycine max); [13]): 100
Plant response rating, Oat, Wild (wild oat (Avena fatua); [11]): 25
Plant response rating, Oat, Wild (wild oat (Avena fatua); [12]): 85
Plant response rating, Oat, Wild (wild oat (Avena fatua); [13]): 90
Plant response rating, Canarygrass [7, 11]: 40
Plant response rating, Canarygrass [7, 12]: 90
Plant response rating, Canarygrass [7, 13]: 98
Plant response rating, Chickweed [8, 11]: 80
Plant response rating, Chickweed [8, 12]: 98
Plant response rating, Chickweed [8, 13]: 100
Plant response rating, Windgrass [9, 11]: 5
Plant response rating, Windgrass [9, 12]: 75
Plant response rating, Windgrass [9, 13]: 85
Barley plant response rating (0 to 100 scale) ([10]; 13 to 15 days): 5
Plant response rating, Barley [10, 11]: 5
Plant response rating, Barley [10, 12]: 30
Plant response rating, Barley [10, 13]: 35

O=C1CCCC(O)=C1C(=O)c1cnc(-c2cc(F)cc(F)c2)n(C2CCCCC2)c1=O [Compound 181]
Bermudagrass plant response rating (0 to 100 scale) ([1]; 13 to 15 days): 100
Plant response rating, Bermudagrass [1, 11]: 100
Plant response rating, Bermudagrass [1, 12]: 100
Plant response rating, Bermudagrass [1, 13]: 100
Blackgrass plant response rating (0 to 100 scale) ([2]; 13 to 15 days): 5
Plant response rating, Blackgrass [2, 11]: 0
Plant response rating, Blackgrass [2, 12]: 15
Plant response rating, Blackgrass [2, 13]: 15
Plant response rating, Cocklebur [3, 11]: 100
Plant response rating, Cocklebur [3, 12]: 100
Plant response rating, Cocklebur [3, 13]: 100
Plant response rating, Corn (corn (Zea mays); [11]): 70
Plant response rating, Corn (corn (Zea mays); [12]): 95
Plant response rating, Corn (corn (Zea mays); [13]): 95
Plant response rating, Foxtail, Giant [4, 11]: 98
Plant response rating, Foxtail, Giant [4, 12]: 100
Plant response rating, Foxtail, Giant [4, 13]: 100
Plant response rating, Johnsongrass [5, 11]: 100
Plant response rating, Johnsongrass [5, 12]: 100
Plant response rating, Johnsongrass [5, 13]: 100
Plant response rating, Kochia (kochia (Kochia scoparia); [11]): 65
Plant response rating, Kochia (kochia (Kochia scoparia); [12]): 100
Plant response rating, Kochia (kochia (Kochia scoparia); [13]): 100
Plant response rating, Morningglory [6, 11]: 95
Plant response rating, Morningglory [6, 12]: 100
Plant response rating, Morningglory [6, 13]: 100
Plant response rating, Soybean (soybean (Glycine max); [11]): 100
Plant response rating, Soybean (soybean (Glycine max); [12]): 100
Plant response rating, Soybean (soybean (Glycine max); [13]): 100
Plant response rating, Oat, Wild (wild oat (Avena fatua); [11]): 65
Plant response rating, Oat, Wild (wild oat (Avena fatua); [12]): 90
Plant response rating, Oat, Wild (wild oat (Avena fatua); [13]): 100
Plant response rating, Canarygrass [7, 11]: 50
Plant response rating, Canarygrass [7, 12]: 85
Plant response rating, Canarygrass [7, 13]: 90
Plant response rating, Chickweed [8, 11]: 100
Plant response rating, Chickweed [8, 12]: 100
Plant response rating, Chickweed [8, 13]: 100
Plant response rating, Windgrass [9, 11]: 40
Plant response rating, Windgrass [9, 12]: 60
Plant response rating, Windgrass [9, 13]: 65
Barley plant response rating (0 to 100 scale) ([10]; 13 to 15 days): 40
Plant response rating, Barley [10, 11]: 5
Plant response rating, Barley [10, 12]: 50
Plant response rating, Barley [10, 13]: 55

Cc1ccc(Cl)cc1-n1c(-c2cccc(F)c2)ncc(C(=O)C2=C(O)CCCC2=O)c1=O [Compound 184]
Bermudagrass plant response rating (0 to 100 scale) ([1]; 13 to 15 days): 100
Plant response rating, Bermudagrass [1, 11]: 98
Plant response rating, Bermudagrass [1, 12]: 100
Plant response rating, Bermudagrass [1, 13]: 100
Blackgrass plant response rating (0 to 100 scale) ([2]; 13 to 15 days): 35
Plant response rating, Blackgrass [2, 11]: 30
Plant response rating, Blackgrass [2, 12]: 40
Plant response rating, Blackgrass [2, 13]: 50
Plant response rating, Cocklebur [3, 11]: 100
Plant response rating, Cocklebur [3, 12]: 100
Plant response rating, Cocklebur [3, 13]: 100
Plant response rating, Corn (corn (Zea mays); [11]): 80
Plant response rating, Corn (corn (Zea mays); [12]): 85
Plant response rating, Corn (corn (Zea mays); [13]): 98
Plant response rating, Foxtail, Giant [4, 11]: 98
Plant response rating, Foxtail, Giant [4, 12]: 100
Plant response rating, Foxtail, Giant [4, 13]: 100
Plant response rating, Johnsongrass [5, 11]: 100
Plant response rating, Johnsongrass [5, 12]: 100
Plant response rating, Johnsongrass [5, 13]: 100
Plant response rating, Kochia (kochia (Kochia scoparia); [11]): 0
Plant response rating, Kochia (kochia (Kochia scoparia); [12]): 5
Plant response rating, Kochia (kochia (Kochia scoparia); [13]): 10
Plant response rating, Morningglory [6, 11]: 40
Plant response rating, Morningglory [6, 12]: 100
Plant response rating, Morningglory [6, 13]: 100
Plant response rating, Soybean (soybean (Glycine max); [11]): 98
Plant response rating, Soybean (soybean (Glycine max); [12]): 100
Plant response rating, Soybean (soybean (Glycine max); [13]): 100
Plant response rating, Oat, Wild (wild oat (Avena fatua); [11]): 40
Plant response rating, Oat, Wild (wild oat (Avena fatua); [12]): 80
Plant response rating, Oat, Wild (wild oat (Avena fatua); [13]): 98
Plant response rating, Canarygrass [7, 11]: 45
Plant response rating, Canarygrass [7, 12]: 80
Plant response rating, Canarygrass [7, 13]: 95
Plant response rating, Chickweed [8, 11]: 100
Plant response rating, Chickweed [8, 12]: 100
Plant response rating, Chickweed [8, 13]: 100
Plant response rating, Windgrass [9, 11]: 60
Plant response rating, Windgrass [9, 12]: 90
Plant response rating, Windgrass [9, 13]: 100
Barley plant response rating (0 to 100 scale) ([10]; 13 to 15 days): 40
Plant response rating, Barley [10, 11]: 5
Plant response rating, Barley [10, 12]: 60
Plant response rating, Barley [10, 13]: 60

O=C1CCCC(O)=C1C(=O)c1cnc(-c2cccc(F)c2)n(C2CCCCC2)c1=O [Compound 187]
Bermudagrass plant response rating (0 to 100 scale) ([1]; 13 to 15 days): 85
Plant response rating, Bermudagrass [1, 11]: 75
Plant response rating, Bermudagrass [1, 12]: 100
Plant response rating, Bermudagrass [1, 13]: 100
Blackgrass plant response rating (0 to 100 scale) ([2]; 13 to 15 days): 0
Plant response rating, Blackgrass [2, 11]: 0
Plant response rating, Blackgrass [2, 12]: 5
Plant response rating, Blackgrass [2, 13]: 5
Plant response rating, Cocklebur [3, 11]: 100
Plant response rating, Cocklebur [3, 12]: 100
Plant response rating, Cocklebur [3, 13]: 100
Plant response rating, Corn (corn (Zea mays); [11]): 50
Plant response rating, Corn (corn (Zea mays); [12]): 75
Plant response rating, Corn (corn (Zea mays); [13]): 80
Plant response rating, Foxtail, Giant [4, 11]: 98
Plant response rating, Foxtail, Giant [4, 12]: 100
Plant response rating, Foxtail, Giant [4, 13]: 100
Plant response rating, Johnsongrass [5, 11]: 90
Plant response rating, Johnsongrass [5, 12]: 100
Plant response rating, Johnsongrass [5, 13]: 100
Plant response rating, Kochia (kochia (Kochia scoparia); [11]): 40
Plant response rating, Kochia (kochia (Kochia scoparia); [12]): 70
Plant response rating, Kochia (kochia (Kochia scoparia); [13]): 80
Plant response rating, Morningglory [6, 11]: 80
Plant response rating, Morningglory [6, 12]: 100
Plant response rating, Morningglory [6, 13]: 100
Plant response rating, Soybean (soybean (Glycine max); [11]): 98
Plant response rating, Soybean (soybean (Glycine max); [12]): 100
Plant response rating, Soybean (soybean (Glycine max); [13]): 100
Plant response rating, Oat, Wild (wild oat (Avena fatua); [11]): 10
Plant response rating, Oat, Wild (wild oat (Avena fatua); [12]): 45
Plant response rating, Oat, Wild (wild oat (Avena fatua); [13]): 45
Plant response rating, Canarygrass [7, 11]: 10
Plant response rating, Canarygrass [7, 12]: 55
Plant response rating, Canarygrass [7, 13]: 60
Plant response rating, Chickweed [8, 11]: 100
Plant response rating, Chickweed [8, 12]: 100
Plant response rating, Chickweed [8, 13]: 100
Plant response rating, Windgrass [9, 11]: 10
Plant response rating, Windgrass [9, 12]: 65
Plant response rating, Windgrass [9, 13]: 80
Barley plant response rating (0 to 100 scale) ([10]; 13 to 15 days): 5
Plant response rating, Barley [10, 11]: 0
Plant response rating, Barley [10, 12]: 40
Plant response rating, Barley [10, 13]: 40
